The values below come from US11155555B2, “Compounds” (Janssen Pharmaceutica NV, priority 2015, dated 2021).

Structures are written as SMILES. Some results are limits rather than exact numbers.

The target in one data set is T1, VEGFR2 (Homo sapiens, UniProt P35968).
T1 construct: purchased DiscoveRx Corporation (assay service)
As to the kind of experiment: KINOMEscan enzyme binding assay VEGFR2. To be noted: KINOMEscan (DiscoveRx); pKd = -log Kd, Kd in M. The method, then:
(§1) Enzyme Binding Assays (KINOMEscan®) Kinase enzyme binding affinities of compounds disclosed herein were determined using the KINOMEscan® technology performed by DiscoveRx Corporation, San Diego, Calif., USA (www.kinomescan.com). Table A2 reports the obtained pKd values, with Kd (M) being the inhibitor binding constant value and with pKd being −log Kd: […]

The next data set deals with T2, FGFR4 (Homo sapiens, UniProt P22455).
T2 construct: purchased DiscoveRx Corporation (assay service)
T2 sequence (P22455 22-802): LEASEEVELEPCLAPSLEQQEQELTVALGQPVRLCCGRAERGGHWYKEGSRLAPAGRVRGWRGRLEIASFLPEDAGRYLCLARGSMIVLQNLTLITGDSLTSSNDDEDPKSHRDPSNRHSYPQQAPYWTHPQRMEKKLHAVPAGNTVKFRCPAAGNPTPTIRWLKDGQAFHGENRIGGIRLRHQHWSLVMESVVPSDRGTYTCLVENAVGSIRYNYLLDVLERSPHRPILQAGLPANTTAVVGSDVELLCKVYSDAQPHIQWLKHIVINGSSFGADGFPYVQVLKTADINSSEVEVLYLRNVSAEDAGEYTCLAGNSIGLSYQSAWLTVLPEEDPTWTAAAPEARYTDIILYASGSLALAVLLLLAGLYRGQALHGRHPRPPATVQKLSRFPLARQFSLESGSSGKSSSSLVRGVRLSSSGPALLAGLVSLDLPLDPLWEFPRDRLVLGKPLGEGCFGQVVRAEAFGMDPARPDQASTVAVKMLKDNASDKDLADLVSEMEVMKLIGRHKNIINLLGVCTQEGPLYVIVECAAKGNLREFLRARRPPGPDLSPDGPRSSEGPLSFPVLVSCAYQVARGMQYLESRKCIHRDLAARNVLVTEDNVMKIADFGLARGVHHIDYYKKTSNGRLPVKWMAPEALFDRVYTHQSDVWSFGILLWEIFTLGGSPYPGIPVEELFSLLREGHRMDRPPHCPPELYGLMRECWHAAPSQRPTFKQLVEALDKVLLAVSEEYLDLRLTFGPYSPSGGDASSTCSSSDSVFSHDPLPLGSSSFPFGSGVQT
Put plainly: KINOMEscan enzyme binding assay FGFR4. The settings on record: KINOMEscan (DiscoveRx); pKd = -log Kd, Kd in M. On the procedure:
as §1

The next data set deals with T3, FGFR3 (Homo sapiens, UniProt P22607).
T3 construct: purchased DiscoveRx Corporation (assay service)
T3 sequence (P22607 23-806): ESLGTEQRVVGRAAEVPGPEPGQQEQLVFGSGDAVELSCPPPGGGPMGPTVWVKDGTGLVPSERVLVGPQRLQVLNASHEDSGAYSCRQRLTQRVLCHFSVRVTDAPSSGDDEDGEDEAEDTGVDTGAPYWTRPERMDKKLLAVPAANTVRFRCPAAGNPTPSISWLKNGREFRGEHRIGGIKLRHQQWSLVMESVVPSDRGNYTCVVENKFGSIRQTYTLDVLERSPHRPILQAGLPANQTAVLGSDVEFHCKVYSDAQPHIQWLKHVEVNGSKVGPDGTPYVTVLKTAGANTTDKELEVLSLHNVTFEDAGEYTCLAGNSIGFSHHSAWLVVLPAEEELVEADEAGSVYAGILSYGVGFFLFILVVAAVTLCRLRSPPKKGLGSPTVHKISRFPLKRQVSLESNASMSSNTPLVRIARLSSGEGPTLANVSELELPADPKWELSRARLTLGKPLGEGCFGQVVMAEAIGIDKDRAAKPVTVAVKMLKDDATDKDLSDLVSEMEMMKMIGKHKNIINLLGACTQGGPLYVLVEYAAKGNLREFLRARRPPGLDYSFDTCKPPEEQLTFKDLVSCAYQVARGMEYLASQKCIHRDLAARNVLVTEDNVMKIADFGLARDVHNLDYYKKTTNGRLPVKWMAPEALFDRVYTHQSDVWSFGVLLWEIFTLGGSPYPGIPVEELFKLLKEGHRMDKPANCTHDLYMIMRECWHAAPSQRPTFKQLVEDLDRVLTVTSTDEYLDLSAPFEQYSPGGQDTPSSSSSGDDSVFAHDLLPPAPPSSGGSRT
As to the kind of experiment: KINOMEscan enzyme binding assay FGFR3. To be noted: KINOMEscan (DiscoveRx); pKd = -log Kd, Kd in M. The method, then:
as §1

The next data set addresses T4, FGFR2 (Homo sapiens, UniProt P21802).
T4 construct: purchased DiscoveRx Corporation (assay service)
As to the kind of experiment: KINOMEscan enzyme binding assay FGFR2. To be noted: KINOMEscan (DiscoveRx); pKd = -log Kd, Kd in M. The method, then:
as §1

Another data set has as its target T5, FGFR1 (Homo sapiens, UniProt P11362).
T5 construct: purchased DiscoveRx Corporation (assay service)
As to the kind of experiment: KINOMEscan enzyme binding assay FGFR1. The settings on record: KINOMEscan (DiscoveRx); pKd = -log Kd, Kd in M. On the procedure: as §1

T4 sequence (P21802 22-821): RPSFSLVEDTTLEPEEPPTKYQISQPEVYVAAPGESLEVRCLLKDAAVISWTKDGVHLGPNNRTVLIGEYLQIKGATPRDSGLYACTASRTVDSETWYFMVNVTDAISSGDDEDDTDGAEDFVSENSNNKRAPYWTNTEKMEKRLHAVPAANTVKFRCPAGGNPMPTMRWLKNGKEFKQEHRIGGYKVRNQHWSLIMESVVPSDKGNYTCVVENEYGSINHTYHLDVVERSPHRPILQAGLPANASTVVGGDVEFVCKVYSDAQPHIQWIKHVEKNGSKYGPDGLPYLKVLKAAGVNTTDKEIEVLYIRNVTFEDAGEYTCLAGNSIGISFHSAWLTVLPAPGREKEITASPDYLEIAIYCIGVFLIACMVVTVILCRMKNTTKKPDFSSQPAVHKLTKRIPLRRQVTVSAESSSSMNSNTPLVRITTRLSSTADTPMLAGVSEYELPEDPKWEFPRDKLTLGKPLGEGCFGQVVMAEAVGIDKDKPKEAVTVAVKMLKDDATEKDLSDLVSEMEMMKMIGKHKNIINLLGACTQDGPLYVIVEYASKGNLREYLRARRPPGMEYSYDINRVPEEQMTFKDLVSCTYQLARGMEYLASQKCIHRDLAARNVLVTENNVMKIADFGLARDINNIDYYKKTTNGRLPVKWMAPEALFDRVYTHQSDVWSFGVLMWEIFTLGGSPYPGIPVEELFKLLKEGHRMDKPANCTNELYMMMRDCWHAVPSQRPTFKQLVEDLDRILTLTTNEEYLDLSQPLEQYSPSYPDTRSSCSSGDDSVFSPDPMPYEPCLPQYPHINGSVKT
T1 sequence (P35968 20-1356): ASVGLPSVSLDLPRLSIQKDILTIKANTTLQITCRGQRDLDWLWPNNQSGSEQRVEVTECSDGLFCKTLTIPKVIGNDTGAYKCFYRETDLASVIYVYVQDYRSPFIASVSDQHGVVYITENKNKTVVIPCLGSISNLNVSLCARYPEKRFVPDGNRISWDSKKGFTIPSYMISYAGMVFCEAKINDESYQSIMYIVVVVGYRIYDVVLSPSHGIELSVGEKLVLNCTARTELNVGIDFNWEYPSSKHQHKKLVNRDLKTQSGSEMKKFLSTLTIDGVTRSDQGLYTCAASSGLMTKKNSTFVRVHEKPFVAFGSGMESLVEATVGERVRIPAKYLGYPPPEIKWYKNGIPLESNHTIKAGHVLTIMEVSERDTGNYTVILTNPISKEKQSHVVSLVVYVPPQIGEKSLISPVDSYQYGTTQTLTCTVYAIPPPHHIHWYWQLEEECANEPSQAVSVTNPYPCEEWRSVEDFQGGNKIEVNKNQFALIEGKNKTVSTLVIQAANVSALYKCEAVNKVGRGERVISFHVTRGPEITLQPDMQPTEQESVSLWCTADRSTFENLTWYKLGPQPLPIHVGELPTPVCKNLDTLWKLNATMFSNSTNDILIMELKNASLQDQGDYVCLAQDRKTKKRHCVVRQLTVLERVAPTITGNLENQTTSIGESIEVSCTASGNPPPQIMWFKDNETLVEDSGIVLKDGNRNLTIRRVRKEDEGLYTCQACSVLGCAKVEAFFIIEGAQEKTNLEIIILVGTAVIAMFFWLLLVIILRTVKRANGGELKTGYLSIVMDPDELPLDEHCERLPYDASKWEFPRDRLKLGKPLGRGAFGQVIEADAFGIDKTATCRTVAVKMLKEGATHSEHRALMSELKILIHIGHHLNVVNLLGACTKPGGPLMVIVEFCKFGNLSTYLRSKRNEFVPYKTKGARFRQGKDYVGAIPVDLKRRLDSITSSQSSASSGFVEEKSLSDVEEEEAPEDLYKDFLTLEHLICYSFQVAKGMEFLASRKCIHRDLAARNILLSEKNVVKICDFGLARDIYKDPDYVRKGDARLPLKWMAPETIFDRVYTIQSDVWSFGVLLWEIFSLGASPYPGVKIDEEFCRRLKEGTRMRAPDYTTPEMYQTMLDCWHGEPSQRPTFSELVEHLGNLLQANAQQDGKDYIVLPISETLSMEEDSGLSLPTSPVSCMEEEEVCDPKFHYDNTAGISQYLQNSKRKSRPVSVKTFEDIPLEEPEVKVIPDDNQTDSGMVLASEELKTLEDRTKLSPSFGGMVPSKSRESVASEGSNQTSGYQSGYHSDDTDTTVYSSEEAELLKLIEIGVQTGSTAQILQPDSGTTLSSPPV
T5 sequence (P11362 22-822): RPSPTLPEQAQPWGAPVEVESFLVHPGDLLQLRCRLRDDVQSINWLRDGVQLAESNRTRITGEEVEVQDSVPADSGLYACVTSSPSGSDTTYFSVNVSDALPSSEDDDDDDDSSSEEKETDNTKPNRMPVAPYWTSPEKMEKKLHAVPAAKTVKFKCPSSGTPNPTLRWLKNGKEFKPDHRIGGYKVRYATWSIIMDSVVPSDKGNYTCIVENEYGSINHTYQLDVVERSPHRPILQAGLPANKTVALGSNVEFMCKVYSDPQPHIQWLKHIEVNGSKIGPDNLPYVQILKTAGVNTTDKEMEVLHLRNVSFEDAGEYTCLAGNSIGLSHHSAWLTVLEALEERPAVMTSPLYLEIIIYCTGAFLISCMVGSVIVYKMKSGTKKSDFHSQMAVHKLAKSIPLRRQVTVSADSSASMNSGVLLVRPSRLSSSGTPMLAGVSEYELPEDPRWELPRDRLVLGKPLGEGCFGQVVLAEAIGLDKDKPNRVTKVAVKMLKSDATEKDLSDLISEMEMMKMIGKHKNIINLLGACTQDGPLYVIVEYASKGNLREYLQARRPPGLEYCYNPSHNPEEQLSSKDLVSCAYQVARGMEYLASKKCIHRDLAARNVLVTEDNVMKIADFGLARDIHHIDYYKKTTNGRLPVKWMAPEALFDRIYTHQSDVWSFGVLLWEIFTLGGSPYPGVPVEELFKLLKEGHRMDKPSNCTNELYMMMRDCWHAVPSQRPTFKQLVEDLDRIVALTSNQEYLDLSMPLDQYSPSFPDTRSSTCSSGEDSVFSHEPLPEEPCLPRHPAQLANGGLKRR

Turning to `COc1cc(OC)c(F)c(N2CCN(C(C)C)Cc3c2ccc2ncc(-c4cn[nH]c4)cc32)c1` [Compound 16], the Kd is 275 nM on VEGFR2; 18.2 nM at FGFR4; 7.94 nM on FGFR3; 39.8 nM at FGFR2; 2.29 nM on FGFR1.
Taken in the same sequence, the figures for `COc1cc(OC)c(Cl)c(N2CCN(C(C)C)Cc3c2ccc2ncc(-c4cnn(C)c4)nc32)c1Cl` [Compound 5] were 263 nM, 77.6 nM, 14.1 nM, 26.9 nM and 7.24 nM.
Consider `COc1cc(OC)c(F)c(N2CCN(C(C)C)Cc3c2ccc2ncc(-c4cnn(C)c4)cc32)c1F` [Compound 12], for which the Kd is 115 nM on VEGFR2; 38 nM on FGFR4; 10.7 nM at FGFR3; 19.5 nM at FGFR2; 3.09 nM on FGFR1.
Taken in the same sequence, the figures for `COc1cc(OC)c(F)c(N2CCN(C(C)C)Cc3c2ccc2ncc(-c4cn[nH]c4)nc32)c1` [Compound 3] were 70.8 nM, 15.8 nM, 5.5 nM, 11.7 nM and 1.55 nM.
`COc1cc(OC)c(Cl)c(N2CCN(C(C)C)Cc3c2ccc2ncc(-c4cnn(C)c4)nc32)c1` [Compound 4]: the equilibrium dissociation constant (Kd) is 58.9 nM at VEGFR2; 27.5 nM at FGFR4; 7.41 nM at FGFR3; 19.1 nM on FGFR2; 2.09 nM at FGFR1.
Consider `COc1cc(OC)c(F)c(N2CCN(C(C)C)Cc3c2ccc2ncc(-c4cnn(C)c4)cc32)c1` [Compound 2], for which the Kd is 93.3 nM at VEGFR2; 8.91 nM at FGFR4; 4.17 nM on FGFR3; 6.03 nM on FGFR2; 1.48 nM at FGFR1.
As to `COc1cc(O)cc(N2CCN(C(C)C)Cc3c2ccc2ncc(-c4cnn(C)c4)nc32)c1F` [Compound 11], the dissociation constant (Kd) on VEGFR2 is 123 nM; on FGFR4, 60.3 nM; at FGFR3, 8.91 nM; on FGFR2, 44.7 nM; at FGFR1, 3.89 nM.
The compound `COc1cc(OC)c(F)c(N2CCN(C(C)C)Cc3c2ccc2ncc(-c4cnn(C)c4)nc32)c1` [Compound 1] gave a melting point of 166 °C. Binding at VEGFR2 was put at a Kd of 45.7 nM. Moreover, the Kd on FGFR4 is 11 nM. For the same compound, the Kd on FGFR3 is 2.4 nM. The same compound had a Kd at FGFR2 of 4.27 nM. For the same compound, binding on FGFR1 was put at a Kd of 0.794 nM.
Turning to `CC(C)N1CCN(c2cc(O)cc(O)c2F)c2ccc3ncc(-c4cnn(C)c4)nc3c2C1` [Compound 9], the Kd at VEGFR2 was > 3020 nM; at FGFR4, > 3020 nM; at FGFR3, > 3020 nM; at FGFR2 it was > 3020 nM; on FGFR1, 977 nM.
